Measurements published in patent US20060199870A1, “Method for producing aqueous ortho-phthalaldehyde solutions” (DSM Fine Chemicals Austria Nfg GmbH & Co KG, priority 2005, published 2006).

Experiment: Solubility / attainable concentration of OPA in aqueous solution
Format: physicochemical
Excerpt: According to the invention, sufficient acetal is introduced into water and dissolved, so that after acidifying, a 0.025 to 9% strength by weight aqueous OPA solution is obtained. Preference is given to 0.05 to 5% strength by weight solutions, particularly preferably 0.5 to 2% strength by weight solutions.
It is advantageous in the inventive method that, compared with the use of OPA itself, more highly concentrated solutions (9% compared with 5%) can be produced, since the alcohol eliminated by the acidification favors the dissolution of the OPA formed.
In addition, if desired, the alcohol being eliminated can be removed from the solution by distilling it off, as a result of which, however, the solubility is reduced again to 5%.

solubility (aqueous solution after the eliminated alcohol is distilled off): 5%
attainable concentration of aqueous OPA solution (solution produced from OPA acetal, alcohol eliminated by the acidification remains in solution): 9%
attainable concentration of aqueous OPA solution (use of OPA itself dissolved in water): 5%
SMILES: O=Cc1ccccc1C=O [OPA, ortho-phthalaldehyde]
